Earlier results in patent US8168657B2, “Solenopsin A, B and analogs and as novel angiogenesis inhibitors” (priority 2002, dated 2012).

What was measured:
[1] = as much as 6000 units used over a shorter time period
[2] = tested on: blood and tissue- and fluid-feeding parasites

## CCCCCCCCCCC[C@H]1CCC[C@H](C)N1 (relative stereo) [Solenopsin A, trans-2-methyl 6-n-undecylpiperidine]
[1]
  ill effects: did not cause any ill effects
[2]; synthetic version versus whole body extract, effective treatment
  units equivalent to 250 units of the whole body extracts: 1500 units
[2]; synthetically produced Solenopsin A
  elimination of blood and tissue- and fluid-feeding parasites: complete elimination
